Laboratory results taken from ChEMBL document CHEMBL1201862, “PubChem BioAssay data set” (2004).
Several values for one entry are separate records, joined by “and”; a condition that tells them apart may be missing. Identical values can stand only once. Entries after “also recorded” stand apart in the source; their conditions may differ. Activity calls are given as the source filed them.

Experiments:
Cytochrome P450 1A2 = biological target: T1, Cytochrome P450 1A2 (Homo sapiens, UniProt P05177);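 note: PubChem cytochrome P450 panel assay, CYP1A2 panel member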
T1 sequence (P05177 whole entry): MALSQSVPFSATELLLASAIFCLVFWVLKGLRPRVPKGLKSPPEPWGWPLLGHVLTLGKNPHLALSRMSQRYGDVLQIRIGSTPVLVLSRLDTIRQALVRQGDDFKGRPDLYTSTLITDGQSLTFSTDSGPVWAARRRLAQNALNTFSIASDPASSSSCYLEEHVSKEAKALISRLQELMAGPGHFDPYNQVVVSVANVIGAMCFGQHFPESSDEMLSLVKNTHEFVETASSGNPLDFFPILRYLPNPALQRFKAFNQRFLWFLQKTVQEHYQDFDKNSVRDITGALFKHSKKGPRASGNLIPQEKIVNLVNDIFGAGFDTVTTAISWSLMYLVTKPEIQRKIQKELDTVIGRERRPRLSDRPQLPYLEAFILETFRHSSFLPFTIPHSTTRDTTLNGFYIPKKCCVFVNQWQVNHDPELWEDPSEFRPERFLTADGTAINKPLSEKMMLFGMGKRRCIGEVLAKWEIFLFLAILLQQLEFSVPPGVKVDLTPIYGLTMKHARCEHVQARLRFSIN

Cytochrome P450 3A4 = Cytochrome P450 3A4 (Homo sapiens, UniProt P08684);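 note: CYP3A4 tested as one member of a cytochrome P450 panel screen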
Sequence of Cytochrome P450 3A4 (P08684 whole entry): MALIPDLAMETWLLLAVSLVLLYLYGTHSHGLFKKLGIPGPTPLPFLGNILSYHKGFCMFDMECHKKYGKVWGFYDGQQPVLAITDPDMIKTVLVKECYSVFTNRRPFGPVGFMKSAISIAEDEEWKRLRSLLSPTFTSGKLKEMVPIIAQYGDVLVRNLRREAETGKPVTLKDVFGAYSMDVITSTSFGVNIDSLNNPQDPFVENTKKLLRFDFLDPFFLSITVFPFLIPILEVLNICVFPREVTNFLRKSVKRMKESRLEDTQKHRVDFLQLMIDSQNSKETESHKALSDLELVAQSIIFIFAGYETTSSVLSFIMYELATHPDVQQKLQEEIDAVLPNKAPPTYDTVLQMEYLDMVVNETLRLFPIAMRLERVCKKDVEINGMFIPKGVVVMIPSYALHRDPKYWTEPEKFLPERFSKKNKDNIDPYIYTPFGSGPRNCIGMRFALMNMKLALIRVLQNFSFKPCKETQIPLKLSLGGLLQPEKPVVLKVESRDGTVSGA

Cytochrome P450 2C9 = Cytochrome P450 2C9 (Homo sapiens, UniProt P11712)
Sequence of Cytochrome P450 2C9 (P11712 whole entry): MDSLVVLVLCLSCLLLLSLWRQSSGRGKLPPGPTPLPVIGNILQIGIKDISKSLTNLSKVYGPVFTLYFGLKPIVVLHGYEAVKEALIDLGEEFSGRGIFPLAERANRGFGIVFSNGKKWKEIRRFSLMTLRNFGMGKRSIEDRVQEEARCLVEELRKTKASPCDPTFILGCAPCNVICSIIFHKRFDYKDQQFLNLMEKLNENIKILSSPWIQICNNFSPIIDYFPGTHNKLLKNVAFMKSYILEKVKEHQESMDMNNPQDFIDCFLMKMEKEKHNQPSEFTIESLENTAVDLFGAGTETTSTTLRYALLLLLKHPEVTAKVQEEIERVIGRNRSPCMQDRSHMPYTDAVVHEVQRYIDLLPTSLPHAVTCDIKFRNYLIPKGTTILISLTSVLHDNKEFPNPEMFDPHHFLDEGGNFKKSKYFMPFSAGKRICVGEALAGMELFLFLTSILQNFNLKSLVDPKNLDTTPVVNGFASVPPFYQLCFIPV

Cytochrome P450 2C19 = Cytochrome P450 2C19 (Homo sapiens, UniProt P33261); assay: Cytochrome panel assay with activity outcomes. Panel member name: p450-cyp2c19 Compounds with AC50 equal or less than 10 uM are considered active; type: functional
Sequence of Cytochrome P450 2C19 (P33261 whole entry): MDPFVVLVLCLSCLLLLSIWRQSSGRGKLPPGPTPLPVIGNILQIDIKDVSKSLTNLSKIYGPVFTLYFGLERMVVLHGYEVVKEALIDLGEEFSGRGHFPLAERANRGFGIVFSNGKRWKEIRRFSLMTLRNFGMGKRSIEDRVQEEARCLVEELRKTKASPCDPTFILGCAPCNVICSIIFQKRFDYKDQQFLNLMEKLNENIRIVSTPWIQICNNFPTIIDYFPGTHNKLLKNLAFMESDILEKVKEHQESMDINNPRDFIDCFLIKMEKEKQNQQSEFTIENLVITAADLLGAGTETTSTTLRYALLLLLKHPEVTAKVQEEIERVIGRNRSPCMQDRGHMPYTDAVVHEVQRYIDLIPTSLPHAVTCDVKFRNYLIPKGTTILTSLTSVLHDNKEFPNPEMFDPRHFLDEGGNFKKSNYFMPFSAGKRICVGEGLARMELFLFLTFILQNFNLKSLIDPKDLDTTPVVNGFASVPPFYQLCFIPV

[1] = biological target: T2, High affinity choline transporter 1 (Homo sapiens, UniProt Q9GZV3); assay: human choline transporter blockers, potency – cell-based, 5-point CRC, membrane potential dye, dose response (AID 504840); type: functional
T2 sequence (Q9GZV3 whole entry): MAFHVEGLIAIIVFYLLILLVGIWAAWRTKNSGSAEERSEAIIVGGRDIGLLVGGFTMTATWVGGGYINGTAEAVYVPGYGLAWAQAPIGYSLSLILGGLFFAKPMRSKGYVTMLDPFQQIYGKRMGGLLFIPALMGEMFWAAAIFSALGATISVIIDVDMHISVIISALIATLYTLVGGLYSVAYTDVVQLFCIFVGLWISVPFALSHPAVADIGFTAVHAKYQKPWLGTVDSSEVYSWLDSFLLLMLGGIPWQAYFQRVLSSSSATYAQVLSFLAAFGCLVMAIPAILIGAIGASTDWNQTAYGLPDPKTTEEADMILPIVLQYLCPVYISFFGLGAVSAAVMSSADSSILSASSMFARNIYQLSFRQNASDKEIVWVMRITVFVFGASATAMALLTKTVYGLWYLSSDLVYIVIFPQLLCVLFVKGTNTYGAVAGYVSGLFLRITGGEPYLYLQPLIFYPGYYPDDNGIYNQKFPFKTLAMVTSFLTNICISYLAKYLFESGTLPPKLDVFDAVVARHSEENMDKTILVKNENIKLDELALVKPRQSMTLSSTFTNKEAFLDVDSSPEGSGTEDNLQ

[2] = biological target: T3, Short transient receptor potential channel 4 (Mus musculus, UniProt Q9QUQ5); assay: block of DAMGO-driven TRPC4 calcium entry – cell-based, HEK293 TRPC4/mu-opioid, Fluo-4 calcium, dose response (AID 434942); type: functional;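 note: potency of inhibitors blocking the TRPC4 calcium response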
T3 sequence (Q9QUQ5 whole entry): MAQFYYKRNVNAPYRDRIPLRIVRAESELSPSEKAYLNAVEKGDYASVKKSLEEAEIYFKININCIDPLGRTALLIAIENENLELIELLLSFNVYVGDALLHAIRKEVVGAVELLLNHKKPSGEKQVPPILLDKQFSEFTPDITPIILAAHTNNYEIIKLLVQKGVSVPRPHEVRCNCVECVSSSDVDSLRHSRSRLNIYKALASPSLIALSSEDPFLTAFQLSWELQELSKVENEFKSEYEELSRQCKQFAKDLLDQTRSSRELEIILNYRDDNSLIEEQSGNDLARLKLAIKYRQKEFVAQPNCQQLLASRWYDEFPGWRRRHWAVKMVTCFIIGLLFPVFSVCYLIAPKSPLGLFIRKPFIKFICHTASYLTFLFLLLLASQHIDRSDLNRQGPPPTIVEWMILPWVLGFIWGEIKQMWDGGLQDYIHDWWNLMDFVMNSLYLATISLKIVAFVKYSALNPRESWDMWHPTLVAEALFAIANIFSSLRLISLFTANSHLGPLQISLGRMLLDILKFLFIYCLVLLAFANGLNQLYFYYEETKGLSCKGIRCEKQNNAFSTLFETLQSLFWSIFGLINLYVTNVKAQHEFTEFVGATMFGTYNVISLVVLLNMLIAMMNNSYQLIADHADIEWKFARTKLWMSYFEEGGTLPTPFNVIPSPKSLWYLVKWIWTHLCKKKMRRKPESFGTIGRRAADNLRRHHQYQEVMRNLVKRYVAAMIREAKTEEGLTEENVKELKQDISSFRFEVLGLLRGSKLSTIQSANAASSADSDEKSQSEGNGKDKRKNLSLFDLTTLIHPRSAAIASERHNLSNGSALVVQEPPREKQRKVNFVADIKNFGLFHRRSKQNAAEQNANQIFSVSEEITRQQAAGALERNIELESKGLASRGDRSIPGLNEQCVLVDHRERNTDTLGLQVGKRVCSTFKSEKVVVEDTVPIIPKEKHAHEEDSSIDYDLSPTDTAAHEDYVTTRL

Protein RecA = biological target: T4, Protein RecA (Mycobacterium tuberculosis, UniProt P9WHJ3); assay: Fluorescence Cell-Free Homogeneous Dose Retest to Identify Inhibitors of RecA-Intein Splicing Activity. [Related pubchem assays (depositor defined):AID2097, AID2223, AID489010, AID492950]; type: functional
T4 sequence (P9WHJ3 whole entry): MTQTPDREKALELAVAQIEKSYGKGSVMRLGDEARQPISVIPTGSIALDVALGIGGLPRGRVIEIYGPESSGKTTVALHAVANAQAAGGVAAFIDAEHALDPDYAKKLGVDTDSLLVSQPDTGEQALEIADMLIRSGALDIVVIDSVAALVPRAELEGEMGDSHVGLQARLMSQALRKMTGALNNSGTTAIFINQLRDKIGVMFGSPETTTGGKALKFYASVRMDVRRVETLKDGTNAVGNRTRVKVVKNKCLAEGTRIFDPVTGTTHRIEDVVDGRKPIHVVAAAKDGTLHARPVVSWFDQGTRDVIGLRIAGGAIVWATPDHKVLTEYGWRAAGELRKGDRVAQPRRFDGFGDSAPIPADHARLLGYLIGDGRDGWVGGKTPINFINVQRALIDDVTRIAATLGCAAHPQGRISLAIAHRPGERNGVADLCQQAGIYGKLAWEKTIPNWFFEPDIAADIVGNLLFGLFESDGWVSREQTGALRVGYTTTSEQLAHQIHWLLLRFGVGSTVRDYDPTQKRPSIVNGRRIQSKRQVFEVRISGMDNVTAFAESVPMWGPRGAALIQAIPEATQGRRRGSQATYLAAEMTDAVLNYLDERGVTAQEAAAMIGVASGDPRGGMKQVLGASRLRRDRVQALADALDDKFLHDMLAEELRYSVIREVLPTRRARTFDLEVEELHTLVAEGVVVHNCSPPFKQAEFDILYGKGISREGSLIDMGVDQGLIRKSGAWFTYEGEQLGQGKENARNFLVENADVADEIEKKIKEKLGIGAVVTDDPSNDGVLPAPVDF

[3] = biological target: DNA damage-inducible transcript 3 protein (Mus musculus, UniProt P35639); type: functional, Cricetulus griseus
Sequence of DNA damage-inducible transcript 3 protein (P35639 whole entry): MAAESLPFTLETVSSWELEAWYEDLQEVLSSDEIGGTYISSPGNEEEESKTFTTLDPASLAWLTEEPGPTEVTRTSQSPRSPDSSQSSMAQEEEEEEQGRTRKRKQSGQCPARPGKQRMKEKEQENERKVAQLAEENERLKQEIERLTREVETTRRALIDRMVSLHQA

[4] = biological target: T5, Replicative DNA helicase DnaB (Mycobacterium tuberculosis, UniProt P9WMR3); assay: DnaB intein splicing inhibitors, dose response, biochemical, cell-free fluorescence (AID 449749); type: functional
T5 sequence (P9WMR3 whole entry): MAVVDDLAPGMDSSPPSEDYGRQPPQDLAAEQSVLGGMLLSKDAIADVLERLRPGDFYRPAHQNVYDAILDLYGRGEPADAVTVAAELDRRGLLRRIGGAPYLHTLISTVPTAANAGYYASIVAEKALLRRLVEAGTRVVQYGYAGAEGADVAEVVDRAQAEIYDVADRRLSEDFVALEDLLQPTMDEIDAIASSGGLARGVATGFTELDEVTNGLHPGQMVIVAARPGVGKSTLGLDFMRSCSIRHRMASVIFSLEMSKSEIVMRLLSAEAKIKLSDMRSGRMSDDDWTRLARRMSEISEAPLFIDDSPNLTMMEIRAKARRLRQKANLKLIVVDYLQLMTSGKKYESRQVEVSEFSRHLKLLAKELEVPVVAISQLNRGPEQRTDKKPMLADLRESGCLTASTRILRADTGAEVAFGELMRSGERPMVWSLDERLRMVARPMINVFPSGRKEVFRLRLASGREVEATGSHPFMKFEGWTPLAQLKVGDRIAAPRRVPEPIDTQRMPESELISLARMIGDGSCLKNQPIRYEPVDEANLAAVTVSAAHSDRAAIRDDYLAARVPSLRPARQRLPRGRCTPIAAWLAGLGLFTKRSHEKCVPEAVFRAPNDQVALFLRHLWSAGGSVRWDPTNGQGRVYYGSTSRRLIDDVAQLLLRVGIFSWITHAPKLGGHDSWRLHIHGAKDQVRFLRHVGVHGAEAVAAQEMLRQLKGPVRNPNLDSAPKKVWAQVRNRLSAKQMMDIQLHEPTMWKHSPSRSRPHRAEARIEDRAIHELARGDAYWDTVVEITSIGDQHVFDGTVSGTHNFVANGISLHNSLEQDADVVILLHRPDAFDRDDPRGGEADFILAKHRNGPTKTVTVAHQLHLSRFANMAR

[5] = microbe, parasite or virus in culture; type: functional; settings: Mycobacterium tuberculosis
[6] = biological target: T6, Heat shock factor protein 1 (Mus musculus, UniProt P38532); assay: enhancement of HSF1-driven luciferase signal – cell-based, NIH3T3, luminescence, dose retest, confirmation (AID 435004); type: functional;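 note: stress induced by proteasome inhibitor MG132 added 30 min after compound; luciferase reporter driven by HSF1 response element in NIH3T3 cells; actives raise luminescence as potentiators of the MG132 stress response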
T6 sequence (P38532 whole entry): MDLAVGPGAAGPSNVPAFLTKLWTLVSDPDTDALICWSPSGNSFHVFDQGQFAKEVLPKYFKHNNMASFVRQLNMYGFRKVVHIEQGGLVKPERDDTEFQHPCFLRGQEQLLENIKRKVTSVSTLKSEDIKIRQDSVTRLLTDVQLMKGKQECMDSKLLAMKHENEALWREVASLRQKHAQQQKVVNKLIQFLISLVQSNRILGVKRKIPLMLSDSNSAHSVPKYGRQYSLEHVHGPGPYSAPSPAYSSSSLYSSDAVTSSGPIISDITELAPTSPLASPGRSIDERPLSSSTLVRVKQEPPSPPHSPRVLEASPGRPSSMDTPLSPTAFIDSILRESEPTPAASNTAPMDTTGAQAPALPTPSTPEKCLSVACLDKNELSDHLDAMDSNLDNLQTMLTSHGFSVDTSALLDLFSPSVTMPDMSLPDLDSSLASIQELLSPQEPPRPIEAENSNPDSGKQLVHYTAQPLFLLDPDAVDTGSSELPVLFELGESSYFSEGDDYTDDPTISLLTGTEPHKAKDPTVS

INS1 = assay: INS-1E survival protection against cytokine death – cell-based, luminescence, retest, dose response (AID 449756); type: functional; settings: Rattus norvegicus, INS1;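 note: cell death triggered by IL-1 beta plus TNF-alpha plus IFN-gamma mixture; protective hits raise ATP signal compared with cytokine alone wells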
[7] = NIH-3T3 fibroblast cytotoxicity, dose response, cytotoxicity control, cell-based, fluorescence, Alamar Blue, secondary assay (AID 2327); type: functional;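 note: NIH-3T3 mouse fibroblasts cultured with fluconazole at 8 µg/mL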
[8] = fluconazole-exposed Candida albicans growth modulators – fluorescence, retest, confirmation (AID 2467); type: functional, cell-based
[9] = MIN6 cell viability loss – mouse insulinoma, cytotoxicity control, dose response (AID 2122); type: functional;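 note: confirmatory high-throughput counterscreen run to flag cytotoxic compounds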
[10] = decrease of insulin promoter-GFP reporter – imaging, high-content screening, mouse beta cells (AID 1628); type: functional; settings: MIN6

Fc1ccc(C(c2ccc(F)cc2)N2CCN(C/C=C\c3ccccc3)CC2)cc1
AC50 (Cytochrome P450 1A2): 15.8 µM (inconclusive) (2×) and 25.1 µM (inconclusive) | AC50 (Cytochrome P450 3A4): inactive; also recorded: inconclusive | AC50 (Cytochrome P450 2C9): 39.8 µM (inconclusive) and 20 µM (inconclusive) and 15.8 µM (inconclusive) | AC50 (Cytochrome P450 2C19): inactive

Cn1c(-c2ccccc2)cnc1NCc1ccccc1
IC50 [1]: 11.5 µM (active) | EC50 [2]: 5.31 µM (active)

CC(C)c1nnc(NC(=O)CCC(=O)N2CCN(c3ccccn3)CC2)s1
AC50 (Cytochrome P450 3A4): inconclusive | AC50 (Cytochrome P450 2C9): 7.08 µM (inconclusive) | AC50 (Cytochrome P450 2C19; read-out: AC50): 28.2 µM (inconclusive)

COCCCN1CCN(c2nnc3n2-c2sc(Br)cc2C(c2ccccc2Cl)=NC3)CC1.CS(=O)(=O)O
AC50 (Cytochrome P450 3A4): inconclusive | AC50 (Cytochrome P450 2C19; read-out: AC50): 7.08 µM (inconclusive)

Cc1ccccc1C(=O)N1CCN(c2ccc([N+](=O)[O-])c(NCc3ccco3)c2)CC1
AC50 (Cytochrome P450 3A4): inconclusive

O=C(CCl)N1CCN2C(=O)c3ccccc3C12c1ccc(Cl)cc1 (configuration not stated)
EC50 (Protein RecA): 1.08 µM (active) | Absolute IC50 (CHOP) [3]: 10 µM | AC50 [4]: 3.96 µM (active) | CC50 [5]: 8.94 µM (active) | EC50 [6]: 15 µM (active)

c1ccc(CN2CCC3(CCc4ccccc43)CC2)cc1
AC50 (Cytochrome P450 1A2): 31.6 µM (inconclusive) | AC50 (Cytochrome P450 3A4): inconclusive | AC50 (Cytochrome P450 2C9): 39.8 µM (inconclusive)

CC(C)(C)c1ccc(OCc2ccc(C(=O)N/N=C/c3ccc(O)c(O)c3)cc2)cc1
AC50 (INS1): 5.45 µM (active) | EC50 [7]: 2.67 µM (inconclusive) | EC50 [8]: > 38 µM (not active) | IC50 [9]: 1.97 µM (active) | IC50 [10]: 3.14 µM (active)

O=[N+]([O-])c1ccccc1N/N=C/c1cccc(O)c1O
IC50 [9]: 3.75 µM (active) | IC50 [10]: 2.74 µM (active)
